# Laboratory results from patent US8653052B2, “Drug combination and its use in the treatment of muscle loss” (Acacia Pharma Limited, priority 2007, dated 2014).
# Where a name gives a salt, the structure may show the parent alone.
# Key:
# cancer patients = conditions: cited from earlier work; for Effect on appetite, calorie intake and nutritional status: several clinical trials
# [1] = system: tumour bearing rats (AH-130 Yoshida ascites hepatoma); assay: Yoshida AH-130 rat ascites hepatoma cachexia model, initial experiment: total food intake; type: in vivo; conditions: at day 3, racemic formoterol 10 μg/kg/day, alone or with megestrol acetate 100 mg/kg/day
# From the text: This study involves the use of the Yoshida AH-130 rat ascites hepatoma model, which is a particularly suitable model system for studying the mechanisms involved in the establishment of cachexia. Its growth in the host causes rapid and progressive loss of bodyweight and tissue wasting, particularly in skeletal muscle. […] Co-administration of each of these β2 agonists with the progestin, megestrol acetate, is also investigated.
# Wistar rats weighing about 100 g are used (Busquets et al 2004, Cancer Res 64:6725-6731). The animals are maintained on a regular light-dark cycle (light from 08.00 am to 8.00 pm) with free access to food and water. Their diet consists of 54% carbohydrate, 17% protein and 5% fat, and the food intake is measured daily. Rats are given an intraperitoneal inoculum of 10^8 AH-130 Yoshida ascites hepatoma cells obtained from exponential tumours.
# The animals were divided into groups: those receiving the test drugs and those receiving vehicle. Drug administration is by subcutaneous injection. Seven days after tumour transplantation, the animals are weighed and anaesthetised with a ketamine/xylacine mixture. The tumour is harvested from the peritoneal cavity, and its volume and cellularity evaluated. […]
# In an initial experiment, the tumour bearing rats were divided into three groups. […] The rats were monitored over a 3 day period.
# [2] = as reported in U.S. Pat. No. 5,449,694; cited from earlier work
smiles,measurement,setting,value
CC(=O)O[C@]1(C(C)=O)CC[C@H]2[C@@H]3C=C(C)C4=CC(=O)CC[C@]4(C)[C@H]3CC[C@@]21C [megestrol acetate],Cancer patients treated with a weight gain of greater than 5%,"cancer patients; cancer patients, significant component of the gain due to fat",15%
same,"Effect on appetite, calorie intake and nutritional status",cancer patients,"improve appetite, calorie intake and nutritional status"
CC(=O)O[C@]1(C(C)=O)CC[C@H]2[C@@H]3C[C@H](C)C4=CC(=O)CC[C@]4(C)[C@H]3CC[C@@]21C [medroxy-progesterone acetate],"Effect on appetite, calorie intake and nutritional status",cancer patients,"improve appetite, calorie intake and nutritional status"
"COc1ccc(CC(C)NCC(O)c2ccc(O)c(NC=O)c2)cc1 (racemic) [racemic formoterol, (±)-N-[2-Hydroxy-5-[1(R*)-hydroxy-2-[1(R*)-methyl-2-(4-methoxyphenyl)ethylamino]ethyl]phenyl]formamide fumarate (2:1) monohydrate]",Total food intake,[1],45±2 g/100 g rat
"C[C@@H](NCCc1ccc(O)cc1)[C@@H](O)c1ccc(O)cc1.Cl (single isomer, unassigned) [(−)-ritodrine]",Relative potency of enantiomers,[2],more potent enantiomer
